Source: US7244438B2, “Uses for polycationic compounds” (Intercell AG, priority 2001, dated 2007)
Where no end group is shown, it is not given here.

Experiments:
[1] = tested on: mouse bone marrow-derived CD11c+ dendritic cells; test: Cytokine production by dendritic cells incubated with poly-L-arginine and/or CpG-ODN (example 5); format: cell-based; conditions: CD11c+ dendritic cells incubated in vitro
Experimental: In parallel, in vitro studies were performed to clarify whether the complexation of CpG-ODN by poly-L-arginine can also directly influence the stimulation of mouse bone marrow-derived CD11c^+ dendritic cells by CpG-ODN concerning the production of TNF-α and IL-6. For this purpose, CD11c^+ dendritic cells were incubated either with poly-L-arginine, CpG-ODN or the combination of poly-L-arginine and CpG-ODN (example 5). The levels of TNF-a and IL-6 were determined in the supernatants derived from these cultures.

[2] = tested on: human dendritic cells; test: Polyinosinic-polycytidylic acid-induced cytokine production by human dendritic cells; format: cell-based; conditions: human dendritic cells in vitro
[3] = mouse, in vivo, sc

Substance | IL-6 in culture supernatants [1] | TNF-α in culture supernatants [1] | polyinosinic-polycytidylic acid-induced production of pro-inflammatory cytokines [2] | TRP-2 peptide-FITC detectable at the injection site [3]
Poly-L-Arginine | neither TNF-α nor IL-6 were detectable | neither TNF-α nor IL-6 were detectable | inhibits | 
TRP-2181-188-peptide-FITC: FITC-labeled TRP-2-Peptide (VYDFFVWL), MHC class I (H-2Kb)-restricted epitope of mouse tyrosinase related protein-2 (not fully specified (N-terminus); also: FITC label; UniProt P29812 181-188, looked up, fragment) |  |  |  | not detectable at the injection site at day 4
